Laboratory results as given in article PMC12670405, “Second-Generation AURKA-Targeting PROTACs: Structural Optimization toward in Vivo Degradation in Neuroblastoma” (Journal of Medicinal Chemistry, 2025).
Where two headings read alike, the source gives them in different places.

How the values were obtained:
NGP = experiment: IncuCyte live-cell imaging, antiproliferative effect; format: cell-based; conditions: Homo sapiens, 72 h
Excerpt: Human neuroblastoma cell lines NGP, IMR-32, SJNB-8, SK-N-BE(2)-C, SJNB-1, SK-N-SH and SK-N-AS, as well as benign immortalized cell lines RPE and HEK293T were either bought commercially or obtained through research laboratories. […] Screening for mycoplasma contamination occurred routinely on the cells. Human neuroblastoma cell lines SH-SY5Y_shABCB1 & SH-SY5Y_shNTC were generated by transduction with pLKO.1-ABCB1_TRCN0000059683 shRNA (Sigma MISSION SHCLND) or pLKO.1-puro NT shRNA (Sigma MISSION SHC002) vectors respectively (Supplementary Table S6), packaged using Lenti-X293T (Clontech). Transduced cells were selected with 2 μg/mL puromycin. These cells were cultured in DMEM 4.5 g/L D-Glucose, L-Glutamine and 110 mg/L Sodium Pyruvate (Gibco, #11995065) supplemented with 10% fetal bovine serum, 1× Antibiotic-Antimycotic solution (Sigma-Aldrich, #A5955) and 1× MEM nonessential amino acids (Sigma-Aldrich, #M7145). Incubation of all cells occurred at 37 °C and 5% CO2.
Neuroblastoma cells were seeded in 384-well plates at different densities ranging from 1200 to 5000 cells/well and allowed to adhere overnight. RPE and HEK293T were seeded at 200 and 600 cells/well, respectively. Compound treatment was performed using the D300e Digital Dispenser (Tecan) in duplicate or triplicate and cell confluency was monitored over time using the IncuCyte Live-cell imaging system (Sartorius). […] Mean normalized confluences were calculated from 3 individual experiments.
All dose–response curves were computed on GraphPad Prism using the Variable Slope (four parameters) equation. Absolute half-maximal degradation (DC50), growth inhibitory (GI50) and enzymatic inhibitory (IC50) concentrations, as well as inhibition constants (Ki) were derived from dose–response curves via interpolation. Statistical tests were performed on GraphPad Prism and detailed in the figure legends. Unless otherwise stated, “n” in the figure legends indicates the number of independent experiments conducted at different times.

Plasma stability assay = format: in vitro ADME, CD-1 mouse; conditions: read-out: plasma t1/2
Protocol: (§1) Plasma and metabolic stability tests were performed by Eurofins Discovery. For the plasma stability assay, test compounds were incubated in CD-1 mouse plasma for 0, 0.5, 1, 1.5, and 2 h at 37 °C at a concentration of 1 μM. For the metabolic stability assay, test compounds were incubated at 37 °C in either (1) CD-1 mouse liver microsomes (MLM) (0.1 mg/mL) at a concentration of 0.1 μM for 0, 15, 30, 45, and 60 min or (2) CD-1 mouse hepatocytes (MH) (0.7 million viable cells/mL) at a concentration of 1 μM for 0, 0.5, 1, 1.5, and 2 h. At the respective time points, acetonitrile was added to the incubation mixture followed by centrifugation. Samples were analyzed by HPLC-MS/MS and peak areas were recorded for each analyte. Compound stability, expressed as the percentage of parent compound remaining, was calculated by comparing the peak area of the compound at each time point relative to that of the 0h time point. Percentage compound remaining is plotted as a function of time as a logarithmic curve. Half-life (t 1/2) is estimated from the slope of the initial linear range of the curve, assuming first-order kinetics. […] Both plasma and metabolic assay experiments were performed once with 2 replicate samples each.

[1] = Metabolic stability in mouse liver microsomes (MLM); format: in vitro ADME, CD-1 mouse; conditions: CD-1
Protocol: as §1

AURKA = biological target: T1, AURKA (Homo sapiens, UniProt O14965); experiment: AURKA degradation, Simple Western; format: cell-based; design: Representative Western blot showing levels of endogenous proteins MDR1, MYCN, AURKA, and CRBN in untreated cell lines; endogenous in cells; host or cells: NGP, IMR-32, SJNB-8, SK-N-BE(2)-C, SK-N-SH, SK-N-AS, SJNB-1, RPE, HEK293T;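 for AURKA Degradation 24h @1000nM: measured in NGP neuroblastoma cells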;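 for AURKA Degradation 24h @100nM: measured in NGP neuroblastoma cells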
T1 sequence (O14965 1-403): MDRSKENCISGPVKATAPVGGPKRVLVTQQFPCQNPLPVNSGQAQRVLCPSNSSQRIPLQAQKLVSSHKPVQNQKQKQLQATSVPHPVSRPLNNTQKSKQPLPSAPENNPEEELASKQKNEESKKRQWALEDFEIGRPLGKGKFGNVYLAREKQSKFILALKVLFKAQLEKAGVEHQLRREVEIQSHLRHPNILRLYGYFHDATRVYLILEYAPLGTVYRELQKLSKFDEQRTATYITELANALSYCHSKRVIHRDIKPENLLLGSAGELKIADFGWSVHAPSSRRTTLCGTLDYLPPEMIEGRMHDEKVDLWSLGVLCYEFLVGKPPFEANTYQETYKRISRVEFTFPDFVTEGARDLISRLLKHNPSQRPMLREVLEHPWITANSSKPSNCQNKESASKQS
Protocol: Cells were seeded in T-25 flasks at different densities ranging from 1 to 2 million cells per flask and allowed to adhere for 1–2 days. In experiments involving compound treatment, this was done by medium replacement containing the compound(s) of interest in their corresponding concentrations. In competition binding experiments, cells were first pretreated with an excess of MK-5108, thalidomide or MG-132 for 1 h by shaking gently at room temperature prior to addition of SK4454 or SK5527. All samples were normalized to contain the same percentage of DMSO as the negative DMSO controls. Cells were harvested on ice at their respective time points by scraping, washed with ice-cold PBS to collect remaining cells, and centrifuged (2500 rpm, 4 °C). A second washing and centrifugation step was performed prior to collection of the final cell pellets which were then snap-frozen in liquid nitrogen and kept frozen at −80 °C until further processing. Lysis of cell pellets occurred in cold RIPA buffer (0.5% w/v Sodium Deoxycholate, 150 mM NaCl, 50 mM TrisHCl pH 7.5, 0.1% w/v SDS, 1% w/v NP-40) supplemented with protease and phosphatase inhibitors (Roche, #11836145001, #04906845001) by rotating gently at 4 °C for 1h, followed by a centrifugation step for 10 min (10,000 rpm, 4 °C). The supernatant was collected and concentrations of the obtained protein lysates were measured using the Pierce BCA Protein Assay Kit (Thermo Fisher Scientific, #23227).
Simple Western analyses were performed with the Wes instrument (Bio-Techne) using the 12–230 kDa Wes Separation module and the EZ standard pack reagent 1 (Biotechne, #SM-W001, #PS-ST01EZ-8) following the manufacturer’s protocol. Protein lysates were loaded at 0.8 μg/μL under denaturing conditions (0.2 μg/μL for MYCN detection). Chemiluminescence peaks were generated by the Compass Software (Bio-Techne) and the area under the peaks calculated using the Gaussian fit method. Per lane, quantified data were always normalized to that of the loading control (Vinculin) prior to calculating fold changes relative to the negative DMSO control. Mean fold changes are calculated from 3 individual experiments. A list of the primary and secondary antibodies used can be found in the Supporting Information (Supplementary Table S7).
Graphs were generated using GraphPad Prism Software (version 10.1.2) or RStudio (R-4.3.2). All dose–response curves were computed on GraphPad Prism using the Variable Slope (four parameters) equation. Absolute half-maximal degradation (DC50), growth inhibitory (GI50) and enzymatic inhibitory (IC50) concentrations, as well as inhibition constants (Ki) were derived from dose–response curves via interpolation. Statistical tests were performed on GraphPad Prism and detailed in the figure legends. Unless otherwise stated, “n” in the figure legends indicates the number of independent experiments conducted at different times.

SMILES	GI50 (NGP; read-out: GI50 72h, 72h) [nM]	GI50 (NGP; read-out: pGI50 (converted)) [nM]	half-life at 1 μM (Plasma stability assay; CD-1, mouse, plasma) [h]	microsomal CLint at 0.1 μM [1] [µL/min/mg]	AURKA Degradation 24h @100nM (AURKA)	AURKA Degradation 24h @1000nM (AURKA)	half-life at 1 μM (Plasma stability assay; CD-1 mouse plasma, 1 μM, 37 °C) [h]	pDC50 (AURKA; AURKA degradation)	Dmax (AURKA; NGP, 24 h treatment) [%]	DC50 (AURKA; read-out: AURKA DC50) [nM]
O=C1CCN(c2ccc(N3CCN(CC4(F)CCN(C(=O)[C@]5(Cc6cccc(Nc7nccs7)n6)CC[C@@H](Oc6cccc(Cl)c6F)CC5)CC4)CC3)nc2)C(=O)N1 [PROTAC 27]	46	46.8	> 2	1060	88	93	–	–	–	–
Cc1cc(Nc2ccc(F)c(CC3(C(=O)N4CCC(F)(C(=O)N5CCN(c6ccc(N7CCC(=O)NC7=O)cn6)CC5)CC4)CCN(Cc4cccc(Cl)c4F)CC3)n2)n[nH]1 [PROTAC 34]	84	83.2	–	–	83	91	–	–	–	–
Cc1cc(Nc2ccc(F)c(CC3(C(=O)N4CC(N5CCC(c6ccc(N7CCC(=O)NC7=O)cn6)CC5)C4)CCN(Cc4cccc(Cl)c4F)CC3)n2)n[nH]1 [PROTAC 35]	332	331	–	–	62	69	–	–	–	–
Cc1cc(Nc2ccc(F)c(CC3(C(=O)N4CCC(CN5CCC(c6ccc(N7CCC(=O)NC7=O)cn6)CC5)CC4)CCN(Cc4cccc(Cl)c4F)CC3)n2)n[nH]1 [PROTAC 36]	60	60.3	–	–	58	78	–	–	–	–
Cc1cc(Nc2ccc(F)c(CC3(C(=O)N4CCC(F)(C(=O)N5CCC(c6ccc(N7CCC(=O)NC7=O)cn6)CC5)CC4)CCN(Cc4cccc(Cl)c4F)CC3)n2)n[nH]1 [PROTAC 38]	146	145	–	–	82	90	–	–	–	–
O=C1CCC(N2C(=O)c3ccc(OCCOCCNC(=O)[C@]4(Cc5cccc(Nc6nccs6)n5)CC[C@@H](Oc5cccc(Cl)c5F)CC4)cc3C2=O)C(=O)N1 (stereo partly shown) [SK3277, reference compound]	52	52.5	–	1080	81	75	1.18	8,15	81	7
